How the values were obtained:
A2780 ovarian cells [1] = assay: A2780 ovarian cell proliferation assay in lipid reduced medium, with palmitate (MTT); format: cell-based; conditions: Homo sapiens, A2780, 96 h; read-out: pIC50 A2780 Ovarian Cell, With Palmitate (converted)
Method in brief: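 Seeded cells were switched next day to lipid-reduced serum, exposed to compound and 25 μM palmitate complexed with fatty-acid-free BSA, and incubated 96 h. Proliferation was then determined by MTT absorbance at 544 nm, with a best-fit curve of signal against concentration.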

[2] = tested on: LNCaP-Vancouver prostate cells; assay: In vitro LNCaP Vancouver prostate cell proliferation assay in lipid reduced medium; format: cell-based; conditions: read-out: pIC50 LNCaP_Vancouver prostate cell (converted)
Procedure: LNCaP-Vancouver prostate cells were obtained from the Vancouver Prostate Cancer Centre. Cells were maintained in RPMI-1640, 10% Fetal Calf Serum (FCS, Hyclone), 2 mM glutamine and 50 μg/ml Gentamicin.
For the proliferation experiment 1500 LNCaP-Vancouver cells per well were seeded in a 384-well black with clear bottom plate (costar 3712BC) in 40 μl RPMI-1640, 10% Lipid reduced serum (LRS, Hyclone), 50 μg/ml Gentamicin and 2 mM Glutamine and incubated at 37° C., 5% CO2. The next day 10 μl of test compound/DMSO diluted in medium was added (3E-5M, 1E-5M, 3E-6M, 1E-6M, 3E-7M, 1E-7M, 3E-8M, 1E-8M final concentration). Compounds were tested in duplicate. After 96 h incubation at 37° C., 5% CO2 25 μl ATP-glow mix was added. The plate was incubated for 30 min at 37° C. and luminescence was measured with the Envision.
Analysis: Determination of pIC50 Values
pIC50 values were calculated as follows.
where mLC and mHC are the means of the low control wells and high control wells on the plate, after manual exclusion of outliers. The relation between the % Controlmin values and concentration was fitted to a 4-parameter logistic curve using a non-linear least squares regression method to determine the pIC50 value. Outlying data points were excluded manually to get a correct fit. The pIC50 corresponds to −log 10(IC50), if the IC50 is expressed in molar units (http://www.ncbi.nlm.nih.gov/books/NBK91994). The IC50 parameter was always determined by non-linear regression, but one or more of the other parameters may have been held fixed on a relevant input value, such as 0 for the bottom values.
For dose response curves with FASN inhibitors in LNCaP-Vancouver or PC-3M-Luc-C6 cells the curves bottom out around 30 to 40% of the control value. A standard fit PL2, forcing the lower bound to this level was used.
Representative compounds of the present invention were tested according to the procedure as described in Biological Example 4a and 4b above, with results as listed in Table 9, below.

[3] = molecular target: Fatty Acid Synthase Keto-reductase Domain (FASN KR) (Homo sapiens, UniProt P49327); assay: Fatty Acid Synthase keto-reductase domain (FASN KR) inhibition, NADPH oxidation at 340 nm
Fatty Acid Synthase Keto-reductase Domain (FASN KR), sequence (P49327 whole entry, the tested form may be a part): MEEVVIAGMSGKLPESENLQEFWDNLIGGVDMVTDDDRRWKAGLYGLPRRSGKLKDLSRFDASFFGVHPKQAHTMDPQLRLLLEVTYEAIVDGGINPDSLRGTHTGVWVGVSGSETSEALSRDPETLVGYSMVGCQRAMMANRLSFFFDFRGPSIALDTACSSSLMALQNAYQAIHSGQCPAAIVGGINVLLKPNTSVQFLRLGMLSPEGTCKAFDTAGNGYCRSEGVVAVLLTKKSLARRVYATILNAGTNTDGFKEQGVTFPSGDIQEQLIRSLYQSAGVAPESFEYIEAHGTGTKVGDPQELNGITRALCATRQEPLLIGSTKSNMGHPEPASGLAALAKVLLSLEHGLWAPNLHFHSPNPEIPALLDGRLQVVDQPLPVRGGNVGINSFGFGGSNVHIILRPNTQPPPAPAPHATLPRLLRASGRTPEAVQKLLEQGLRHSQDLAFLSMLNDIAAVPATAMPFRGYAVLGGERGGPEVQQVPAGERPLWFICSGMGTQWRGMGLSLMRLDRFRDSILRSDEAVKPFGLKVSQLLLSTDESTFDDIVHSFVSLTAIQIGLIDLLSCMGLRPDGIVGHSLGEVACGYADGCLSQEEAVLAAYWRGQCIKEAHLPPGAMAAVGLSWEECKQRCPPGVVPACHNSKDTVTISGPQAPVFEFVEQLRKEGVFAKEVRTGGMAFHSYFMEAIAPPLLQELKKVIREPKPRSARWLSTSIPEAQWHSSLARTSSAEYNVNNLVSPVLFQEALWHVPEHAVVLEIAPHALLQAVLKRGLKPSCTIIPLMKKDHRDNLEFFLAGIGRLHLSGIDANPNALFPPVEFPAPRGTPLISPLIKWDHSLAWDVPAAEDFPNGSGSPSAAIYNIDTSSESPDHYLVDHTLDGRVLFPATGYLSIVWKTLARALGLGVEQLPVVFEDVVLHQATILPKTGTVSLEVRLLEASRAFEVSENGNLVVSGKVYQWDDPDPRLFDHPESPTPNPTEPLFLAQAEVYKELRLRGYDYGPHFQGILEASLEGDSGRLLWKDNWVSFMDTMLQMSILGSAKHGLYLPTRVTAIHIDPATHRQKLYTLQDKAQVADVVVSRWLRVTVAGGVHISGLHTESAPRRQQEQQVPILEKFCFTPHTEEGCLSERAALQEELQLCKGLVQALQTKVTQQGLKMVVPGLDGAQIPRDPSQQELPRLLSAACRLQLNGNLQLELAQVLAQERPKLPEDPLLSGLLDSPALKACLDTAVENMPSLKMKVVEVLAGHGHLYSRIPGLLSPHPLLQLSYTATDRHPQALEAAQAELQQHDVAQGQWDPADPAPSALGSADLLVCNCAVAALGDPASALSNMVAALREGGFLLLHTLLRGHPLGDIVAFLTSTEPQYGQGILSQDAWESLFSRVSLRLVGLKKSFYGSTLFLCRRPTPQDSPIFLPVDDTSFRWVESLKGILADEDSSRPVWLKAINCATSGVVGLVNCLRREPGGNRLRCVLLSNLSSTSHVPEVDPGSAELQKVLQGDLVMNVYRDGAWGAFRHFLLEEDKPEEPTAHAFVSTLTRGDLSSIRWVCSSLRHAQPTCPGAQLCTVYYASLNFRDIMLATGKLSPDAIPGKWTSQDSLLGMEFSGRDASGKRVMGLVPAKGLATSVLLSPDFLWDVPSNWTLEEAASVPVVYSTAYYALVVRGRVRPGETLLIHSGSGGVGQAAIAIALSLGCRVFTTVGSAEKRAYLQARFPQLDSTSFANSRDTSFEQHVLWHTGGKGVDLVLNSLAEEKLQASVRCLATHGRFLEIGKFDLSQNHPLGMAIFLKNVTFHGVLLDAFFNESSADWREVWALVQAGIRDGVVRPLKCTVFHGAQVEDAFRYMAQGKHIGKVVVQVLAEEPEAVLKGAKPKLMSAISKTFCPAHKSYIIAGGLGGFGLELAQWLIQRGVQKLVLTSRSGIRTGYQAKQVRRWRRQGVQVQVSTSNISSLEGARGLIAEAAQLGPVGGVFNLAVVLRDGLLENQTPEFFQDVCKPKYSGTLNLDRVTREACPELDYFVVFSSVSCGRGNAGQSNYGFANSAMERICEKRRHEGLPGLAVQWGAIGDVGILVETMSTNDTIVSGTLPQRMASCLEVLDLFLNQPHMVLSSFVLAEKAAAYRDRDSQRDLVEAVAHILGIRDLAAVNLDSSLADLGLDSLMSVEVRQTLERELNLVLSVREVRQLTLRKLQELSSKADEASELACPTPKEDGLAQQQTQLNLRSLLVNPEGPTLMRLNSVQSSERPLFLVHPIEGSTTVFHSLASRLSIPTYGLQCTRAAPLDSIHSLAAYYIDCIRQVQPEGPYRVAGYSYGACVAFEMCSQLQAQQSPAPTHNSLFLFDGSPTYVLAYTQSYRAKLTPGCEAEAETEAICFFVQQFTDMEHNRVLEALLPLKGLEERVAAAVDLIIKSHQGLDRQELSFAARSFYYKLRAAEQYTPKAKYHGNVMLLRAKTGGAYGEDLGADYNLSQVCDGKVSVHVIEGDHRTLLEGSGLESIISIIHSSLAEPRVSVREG
Procedure: After 20 minutes incubation at room temperature the plate was measured again (T2).
The decrease in absorbance was calculated as (Absorbance before incubation T1)−(Absorbance following incubation T2).
A plot of Controlmin versus test compound concentration was fitted to a 4-parameter logistic curve using a non-linear least squares regression method.

A2780 ovarian cells [4] = assay: A2780 ovarian cell proliferation assay in lipid reduced medium, without palmitate (MTT); format: cell-based; conditions: Homo sapiens, A2780, 96 h; read-out: pIC50 A2780 Ovarian Cell, Without Palmitate (converted)
[5] = molecular target: T1, hFASN enzyme (full length) (Homo sapiens, UniProt P49327); assay: Fatty Acid Synthase (FASN) inhibition scintillation proximity assay; format: biochemical; conditions: for inhibition at 10 µM: read-out: Human FASN % inhibition @ 10 μM, 10 μM test compound; for IC50: read-out: Human FASN pIC50 (converted)
T1 construct: 10 μL hFASN enzyme (full length, 300 ng, purified in house); made in house
T1 sequence (P49327 whole entry): as the sequence (P49327 whole entry, the tested form may be a part) above
Method in brief: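 Purified full-length hFASN (300 ng) converts ^3H-acetyl-CoA plus malonyl-CoA to ^3H-palmitate in 100 mM KH2PO4 pH 7.5, 1 mM DTT; compounds tested at 0.01–30 μM. Product captured on streptavidin imaging beads and read by LEADseeker at 610 nm after ≥24 h; 4-parameter logistic fit versus controls.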

Cc1sc2ccc(-c3ccc(C4=NC5(CC5)C(=O)N4C[C@@H]4CCN(C(=O)C5CC5)C4)cc3F)cc2c1C [compound 406, 6-{[(3R)-1-(Cyclopropylcarbonyl)pyrrolidin-3-yl]methyl}-5-[4-(2,3-dimethyl-1-benzothiophen-5-yl)-3-fluorophenyl]-4,6-diazaspiro[2.4]hept-4-en-7-one]
IC50 (A2780 ovarian cells [1]): > 10 µM
IC50 [2]: 7080 nM
IC50 [3]: 363 nM
IC50 (A2780 ovarian cells [4]): 6030 nM
inhibition at 10 µM [5]: 99%
IC50 [5]: 126 nM

Cn1ncc2cc(-c3ccc(C4=NC5(CC5)C(=O)N4C[C@@H]4CCN(C(=O)C5CC5)C4)nc3)ccc21 [compound 397, 6-{[(3R)-1-(Cyclopropylcarbonyl)pyrrolidin-3-yl]methyl}-5-[5-(1-methyl-1H-indazol-5-yl)pyridin-2-yl]-4,6-diazaspiro[2.4]hept-4-en-7-one]
IC50 (A2780 ovarian cells [1]): > 10 µM
IC50 [2]: 3020 nM
IC50 [3]: ~3890 nM
IC50 (A2780 ovarian cells [4]): 1550 nM
Human FASN pIC50 ([5]; hFASN enzyme full length, scintillation proximity assay, "~" = standard error of pIC50 larger than 0.5): 6.1
inhibition at 10 µM [5]: 90%

O=C1CCc2cc(-c3ccc(C4=NC5(CC5)C(=O)N4C[C@@H]4CCN(C(=O)C5CC5)C4)cc3)ccc2N1 [compound 512, 6-[4-(6-{[(3R)-1-(Cyclopropylcarbonyl)pyrrolidin-3-yl]methyl}-7-oxo-4,6-diazaspiro[2.4]hept-4-en-5-yl)phenyl]-3,4-dihydroquinolin-2(1H)-one]
IC50 (A2780 ovarian cells [1]): > 10 µM
IC50 [2]: 3980 nM
IC50 [3]: 3090 nM
IC50 (A2780 ovarian cells [4]): 1000 nM
inhibition at 10 µM [5]: 87%
IC50 [5]: 676 nM

Cc1cc(C2=NC3(CC3)C(=O)N2C[C@@H]2CCN(C(=O)C3CC3)C2)ccc1-c1ccc2oc(C#N)cc2c1 [compound 476, 5-[4-(6-{[(3R)-1-(Cyclopropylcarbonyl)pyrrolidin-3-yl]methyl}-7-oxo-4,6-diazaspiro[2.4]hept-4-en-5-yl)-2-methylphenyl]-1-benzofuran-2-carbonitrile]
IC50 (A2780 ovarian cells [1]): > 10 µM
IC50 [2]: 3720 nM
IC50 [3]: 617 nM
IC50 (A2780 ovarian cells [4]): ~2040 nM
inhibition at 10 µM [5]: 90%
IC50 [5]: 263 nM

Cn1ncc2cc(-c3ccc(C4=NC5(CC5)C(=O)N4C[C@@H]4CCN(C(=O)C5COC5)C4)cc3)ccc21 [compound 490, 5-[4-(1-Methyl-1H-indazol-5-yl)phenyl]-6-{[(3R)-1-(oxetan-3-ylcarbonyl)pyrrolidin-3-yl]methyl}-4,6-diazaspiro[2.4]hept-4-en-7-one]
IC50 (A2780 ovarian cells [1]): > 10 µM
IC50 [2]: 1050 nM
IC50 [3]: 363 nM
IC50 (A2780 ovarian cells [4]): 93.3 nM
inhibition at 10 µM [5]: 81%
IC50 [5]: 331 nM

CC(C)N1CCC2(CC1)N=C(c1ccc(-c3ccc4[nH]ccc4c3)cc1)N(C[C@@H]1CCN(C(=O)C3CC3)C1)C2=O [compound 744, 3-{[(3R)-1-(Cyclopropylcarbonyl)pyrrolidin-3-yl]methyl}-2-[4-(1H-indol-5-yl)phenyl]-8-(1-methylethyl)-1,3,8-triazaspiro[4.5]dec-1-en-4-one]
IC50 (A2780 ovarian cells [1]): > 10 µM
IC50 [2]: 851 nM
IC50 [3]: 251 nM
IC50 (A2780 ovarian cells [4]): ~214 nM
inhibition at 10 µM [5]: 98%
IC50 [5]: 115 nM

Cc1cc(-c2cccc(SC3CC3)c2)ccc1C1=NC2(CC2)C(=O)N1C[C@@H]1CCN(C(=O)C2CC2)C1 [compound 642, 6-{[(3R)-1-(Cyclopropylcarbonyl)pyrrolidin-3-yl]methyl}-5-[3′-(cyclopropylsulfanyl)-3-methylbiphenyl-4-yl]-4,6-diazaspiro[2.4]hept-4-en-7-one]
IC50 (A2780 ovarian cells [1]): > 10 µM
IC50 [2]: 6170 nM
IC50 [3]: 776 nM
IC50 (A2780 ovarian cells [4]): ~3800 nM
inhibition at 10 µM [5]: 99%
IC50 [5]: 219 nM

O=C([C@H]1CCCO1)N1CC(CN2C(=O)C3(CCOC3)N=C2c2ccc(-c3ccc4cccnc4c3)cc2)C1 (stereo partly drawn) [compound 716, 2-(4-Quinolin-7-ylphenyl)-3-({1-[(2R)-tetrahydro-furan-2-ylcarbonyl]azetidin-3-yl}methyl)-7-oxa-1,3-diazaspiro[4.4]non-1-en-4-one]
IC50 (A2780 ovarian cells [1]): > 10 µM
IC50 [2]: 5500 nM
IC50 [3]: 1050 nM
IC50 (A2780 ovarian cells [4]): 513 nM
inhibition at 10 µM [5]: 88%
IC50 [5]: 398 nM

O=C(C1CC1)N1CC[C@@H](CN2C(=O)C3(CC3)N=C2c2ccc(-c3cccc4[nH]ncc34)cn2)C1 [compound 429, 6-{[(3R)-1-(Cyclopropylcarbonyl)pyrrolidin-3-yl]methyl}-5-[5-(1H-indazol-4-yl)pyridin-2-yl]-4,6-diazaspiro[2.4]hept-4-en-7-one]
IC50 (A2780 ovarian cells [1]): > 10 µM
IC50 [2]: 1320 nM
IC50 [3]: 513 nM
IC50 (A2780 ovarian cells [4]): 417 nM
inhibition at 10 µM [5]: 96%
IC50 [5]: 240 nM

CS(=O)(=O)N1CCC2(CC1)N=C(c1ccc(-c3ccc4[nH]ccc4c3)cc1)N(C[C@@H]1CCN(C(=O)C3CC3)C1)C2=O [compound 745, 3-{[(3R)-1-(Cyclopropylcarbonyl)pyrrolidin-3-yl]methyl}-2-[4-(1H-indol-5-yl)phenyl]-8-(methylsulfonyl)-1,3,8-triazaspiro[4.5]dec-1-en-4-one]
IC50 (A2780 ovarian cells [1]): > 10 µM
IC50 [2]: 851 nM
IC50 [3]: 158 nM
IC50 (A2780 ovarian cells [4]): 95.5 nM
inhibition at 10 µM [5]: 104%
IC50 [5]: 70.8 nM

Cc1cc(-c2cccc(NC(=O)C3CC3)c2)ccc1C1=NC2(CC2)C(=O)N1C[C@@H]1CCN(C(=O)C2CC2)C1 [compound 614, N-[4′-(6-{[(3R)-1-(Cyclopropylcarbonyl)pyrrolidin-3-yl]methyl}-7-oxo-4,6-diazaspiro[2.4]hept-4-en-5-yl)-3′-methylbiphenyl-3-yl]cyclopropanecarboxamide]
IC50 (A2780 ovarian cells [1]): > 10 µM
IC50 [2]: 1350 nM
IC50 [3]: 309 nM
IC50 (A2780 ovarian cells [4]): 170 nM
inhibition at 10 µM [5]: 102%
IC50 [5]: 151 nM

Cn1ncc2cc(-c3ccc(C4=NC5(CC5)C(=O)N4CC4CN(C(=O)C5CC5)C4)c(F)c3)ccc21 [compound 347, 6-((1-(cyclopropanecarbonyl)azetidin-3-yl)methyl)-5-(2-fluoro-4-(1-methyl-1H-indazol-5-yl)phenyl)-4,6-diazaspiro[2.4]hept-4-en-7-one]
IC50 (A2780 ovarian cells [1]): > 10 µM
IC50 [2]: 708 nM
IC50 [3]: 120 nM
IC50 (A2780 ovarian cells [4]): ~50.1 nM
inhibition at 10 µM [5]: 98%
IC50 [5]: 49 nM

O=C(C1CC1)N1CC[C@@H](CN2C(=O)C3(CC3)N=C2c2ccc(-c3ccc4occc4c3)c(F)c2)C1 [compound 232, (R)-5-(4-(benzofuran-5-yl)-3-fluorophenyl)-6-((1-(cyclopropanecarbonyl)pyrrolidin-3-yl)methyl)-4,6-diazaspiro[2.4]hept-4-en-7-one]
IC50 (A2780 ovarian cells [1]): > 6.17 µM
IC50 [2]: 1820 nM
IC50 [3]: 324 nM
IC50 (A2780 ovarian cells [4]): 2400 nM
inhibition at 10 µM [5]: 105%
IC50 [5]: 83.2 nM

N#Cc1ccc2sc(-c3ccc(C4=NC5(CC5)C(=O)N4CC4CN(C(=O)C5CC5)C4)c(F)c3)nc2c1 [compound 652, 2-[4-(6-{[1-(Cyclopropylcarbonyl)azetidin-3-yl]methyl}-7-oxo-4,6-diazaspiro[2.4]hept-4-en-5-yl)-3-fluorophenyl]-1,3-benzothiazole-5-carbonitrile]
IC50 (A2780 ovarian cells [1]): > 6.17 µM
IC50 [2]: 1200 nM
IC50 [3]: 347 nM
IC50 (A2780 ovarian cells [4]): 174 nM
inhibition at 10 µM [5]: 97%
IC50 [5]: 186 nM

Cc1cc(-c2ccc(C#N)cc2F)ccc1C1=NC2(CC2)C(=O)N1CC1CN(C(=O)C2(C)CC2)C1 [compound 580]
IC50 (A2780 ovarian cells [1]): > 10 µM
IC50 [2]: 759 nM
IC50 [3]: 603 nM
IC50 (A2780 ovarian cells [4]): 56.2 nM
inhibition at 10 µM [5]: 108%
IC50 [5]: 123 nM

Cn1nc(CO)c2cc(-c3ccc(C4=NC5(CC5)C(=O)N4CC4CN(C(=O)C5CC5)C4)cc3)ccc21 [compound 530, 6-{[1-(Cyclopropylcarbonyl)azetidin-3-yl]methyl}-5-{4-[3-(hydroxymethyl)-1-methyl-1H-indazol-5-yl]phenyl}-4,6-diazaspiro[2.4]hept-4-en-7-one]
IC50 (A2780 ovarian cells [1]): > 10 µM
IC50 [2]: 5130 nM
IC50 [3]: 2950 nM
IC50 (A2780 ovarian cells [4]): 776 nM
inhibition at 10 µM [5]: 97%
IC50 [5]: 263 nM
